Measurements: patent US11505797B2, “Gene knockout of variant NRF2 for treatment of cancer” (Christiana Care Health Services, Inc., priority 2019, dated 2022)
“Also recorded” adds a separate entry of the source.

Tests used:
[1] = tested on: wildtype NRF2 gene in the H1703 cell line; assay: TIDE indel efficiency of R34G sgRNA at various lengths in H1703 parental cells; type: cell-based, human; conditions: for total indel efficiency: 250 pmol sgRNA to 50 pmol Cas9, 72 hours
Method: H1703 parental cells were cultured 48 hours prior to transfections and about 60-80% confluent on the day of transfection. 10^6 cells per 100 ul was used per transfection and each condition was run in duplicate.
Each CRISPR/Cas9 RNP was complexed at a 5:1 ratio of sgRNA to Cas9. 250 pmol of sgRNA was complexed at room temperature with 50 pmol of Cas9, in duplicate. The RNP complex was then transfected into H1703 parental cells using nucleofection (Lonza) with the SF Nucleofection Kit. Transfected cells were plated and allowed to recover for 72 hours. After the 72 hours, each sample of cells was collected by trypsinization and pelleted for further analysis. Cell pellets were used for genomic DNA isolation, PCR and Sanger sequencing.
It has been reported that gRNA length can affect target specificity (Fu et al., Nat. Biotechnol. 32:279-84 (2014)). The efficiency of indel formation of the various length R34G sgRNAs to the wildtype “on-target” site was evaluated. sgRNAs for each length were synthetized and complexed with purified Cas9. Replicate experiments were carried out with H1703 lung squamous cells that were transfected with each RNP, recovered for 72 hours, then analyzed for indel formation. No R34G site is present in the wildtype NRF2 gene in the H1703 cell line, therefore only minimal or background gene editing activity is expected.

[2] = tested on: NRF2 knockout A549 cells (2-11); assay: MTS cell proliferation assay, NRF2 knockout A549 cells (2-11); type: cell-based, human; conditions: 2-11 knockout A549, increasing dosages, 72 hours; listed as Carboplatin
Method: Cell viability was evaluated using the CellTiter 96 Aqueous Non-Radioactive Cell Proliferation Assay (Promega, Madison, Wis.). A549 cell lines were plated at 2×10^3 cells per well and allowed to culture for 24 hours. The cell media was then aspirated, the cells washed with PBS, then exposed to the MTS reagent for 3 hours. After 3 hours of MTS bio-reduction by proliferating cells, the formazan product's absorbance was measured using a 450 nm filter on an Infinite 2000 PRO microplate reader (Tecan, Mannadorf, Switzerland). Cell viability after drug exposure was evaluated using the CellTiter 96 Aqueous Non-Radioactive Cell Proliferation Assay. A549 cell lines were plated at 2×10^3 cells per well and allowed to culture for 24 hours. The cells were then treated with cisplatin, carboplatin, or a combination of cisplatin and vinorelbine for three days. The cell media was then aspirated, the cells washed with PBS, then exposed to the MTS reagent for 3 hours. After 3 hours of MTS bio-reduction by proliferating cells, the formazan product's absorbance was measured using a 450 nm filter on an Infinite 2000 PRO microplate reader.

[3] = tested on: NRF2 knockout A549 (2-11) tumors; assay: Xenograft mouse model, NRF2 knockout A549 (2-11) tumors; type: in vivo, athymic nude mice; conditions: tail vein day 0, 3, 6, 9; cisplatin 2 mg/kg; cisplatin 5 mg/kg + vinorelbine 5 mg/kg; carboplatin 25 mg/kg
Method: The human xenograft model was established using methodology reported previously. Kellar et al., Biomed Res. Int. […] Female athymic nude mice (Envigo, 5-6 weeks old) were used in this study. Approximately 5×10^6 cells (wild type A549 or homozygous knockout (clonal expansion 2-11)) suspended in PBS with 20% Matrigel were injected subcutaneously into right flank of each mouse. Tumor volume was measured three times a week with a digital caliper once palpable, and calculated using the formula, tumor size=ab^2/2, where ‘a’ is the larger and ‘b’ is the smaller of the two dimensions. When tumors grew up to a mean volume of around 100 mm^3, A549 tumor bearing mice or A549-2-11 tumor bearing mice were randomly divided into 7 groups (N=5 for each group) respectively and subject to dose/regimen-finding study. […] Tumor volume and body weight was closely monitored over time. After 16 days, the animals were sacrificed, with tumor removed, weighed and processed for molecular analysis. Mice were euthanized. The data were expressed as mean±SD. Student's t-test and one-way or two-way ANOVA was used to assess the significance of difference. A P value<0.05 was considered significant.
A549 xenografts were resected on day 16, snap frozen in liquid nitrogen and stored in −80° C. until usage. All immunofluorescence staining was performed as previously described. Wang et al., Investig. Opthalmology Vis. […] Briefly, tumors were embedded in Optimum Cutting Temperature (Tissue Tek, Torrance, Calif., USA) and 16-μm-thick sections were obtained with a Leica CM3050 cryostat (Leica Microsystems, Buffalo Grove, Ill., USA), and mounted on slides. Slides were fixed and incubated with blocking buffer for 1 hour at room temperature. […] Sections were washed in PBS, then mounted with SlowFade Gold antifade mountant with DAPI (Invitrogen, Carlsbad, Calif., USA). Images were obtained with a Zeiss Observer.Z1 microscope (Carl Zeiss, Inc., Gottingen, Germany). The TUNEL assay was conducted with In Situ Cell Death Detection Kit, Fluorescein (Roche, Base, Switzerland), following the manufacturer's instructions. […]

[4] = tested on: NRF2 locus (exon 4) in A549 cells; assay: TIDE indel analysis of bulk sorted eGFP+ A549 cells transfected with pX458 gRNA1 or gRNA2; type: cell-based, human; conditions: bulk sorted eGFP+ A549 population, pX458 plasmid
Method: A549 cells were transfected at a concentration of 5×10^5 cells/100 μl in 4 mm gap cuvette (BioExpress, Kaysville, Utah, USA). NRF2 targeting pX458 constructs were separately electroporated (250 V, LV, 13 ms pulse length, 2 pulses, 1 s interval) into A549 cells using a Bio-Rad Gene Pulser XCell Electroporation System (Bio-Rad Laboratories, Hercules, Calif., USA). Cells were then recovered in 6-well plates with complete growth media at 37° C. for 72 hours prior to sorting. […] Clones were expanded and transferred to larger plates as the individual clones reached confluence, with DNA isolation occurring when cells reached confluence in a six-well plate (1×10^6 cells/mL). […]
FIG. 1B illustrates the functional domains of the NRF2 protein including the KEAP1 Binding Domain, Transactivation Domain, Repressor Binding Domain, β-TrCP Binding Domain, DNA Binding Domain and the Transcriptional Activation Domain. […] To evaluate the efficiency of CRISPR-directed NRF2 knockout in the total targeted population, eGFP+ cells were isolated as a population, and the degree of genetic disruption at the NRF2 locus in cells, transfected with either gRNA1 or gRNA2 pX458, was determined. The sorted populations were Sanger-sequenced and the resulting trace files were analyzed for the presence of indels, a marker for gene disruption. […]

Row | Compound | sequence remaining wildtype ([1]; first value (replicate 1)) [%] | total indel efficiency ([1]; first value (replicate 1)) [%] | sequence remaining wildtype ([1]; replicate 2) [%] | total indel efficiency ([1]; replicate 2) [%] | chemosensitivity (MTS cell proliferation) [2] | tumor growth over 16 days [3] | indels by TIDE (NRF2 disruption) [4]
1 | ATAGATCTTGGAGTAAG (listed as DNA, chemistry not given here) [17 nucleotide length sgRNA] | 98.0 | 1.5 | 97.7 | 1.6 | – | – | –
2 | N.N.O=C([O-])C1(C(=O)[O-])CCC1.[Pt+2] [carboplatin] | – | – | – | – | the cell killing response reflected what was observed in the experiments using cisplatin | the same reduced proliferation and growth trend described above is reproduced; also recorded: significant reduction in tumor cell proliferation | –
3 | GATATAGATCTTGGAGTAAG (listed as DNA, chemistry not given here) [20 nucleotide length sgRNA] | 98.4 | 0.8 | 96.2 | 2.9 | – | – | –
4 | 5′-UGAUUUAGACGGUAUGCAACAGG-3′ (expressed or natural sequence) [gRNA2] | – | – | – | – | – | – | significant amount of indels
5 | CAAGATATAGATCTTGGAGTAAG (listed as DNA, chemistry not given here) [23 nucleotide length sgRNA] | 95.8 | 3.4 | 95.2 | 3.8 | – | – | –
6 | 5′-UCGAUGUGACCGGGAAUAUCAGG-3′ (expressed or natural sequence) [gRNA1] | – | – | – | – | – | – | significant amount of indels
7 | TATAGATCTTGGAGTAAG (listed as DNA, chemistry not given here) [18 nucleotide length sgRNA] | 97.4 | 1.9 | 96.6 | 2.6 | – | – | –
8 | AAGATATAGATCTTGGAGTAAG (listed as DNA, chemistry not given here) [22 nucleotide length sgRNA] | 98.2 | 1.2 | 96.5 | 2.3 | – | – | –
